Source: ChEMBL document CHEMBL1153626, “Rapid assessment of a novel series of selective CB(2) agonists using parallel synthesis protocols: A Lipophilic Efficiency (LipE) analysis” (Bioorg Med Chem Lett, 2009)

Legend:
Format in all cases: functional, cell-based
Cannabinoid receptor 1 [1] = molecular target: T1, Cannabinoid receptor 1 (Homo sapiens, UniProt P21554); experiment: Agonist activity at human recombinant CB1 receptor expressed in CHO cells at 10 uM by FLIPR assay
Cannabinoid receptor 2 = Cannabinoid receptor 2 (Homo sapiens, UniProt P34972); experiment: Agonist activity at human recombinant CB2 receptor expressed in CHO cells assessed as inhibition forskolin-induced cAMP release
Sequence of Cannabinoid receptor 2 (P34972 whole entry): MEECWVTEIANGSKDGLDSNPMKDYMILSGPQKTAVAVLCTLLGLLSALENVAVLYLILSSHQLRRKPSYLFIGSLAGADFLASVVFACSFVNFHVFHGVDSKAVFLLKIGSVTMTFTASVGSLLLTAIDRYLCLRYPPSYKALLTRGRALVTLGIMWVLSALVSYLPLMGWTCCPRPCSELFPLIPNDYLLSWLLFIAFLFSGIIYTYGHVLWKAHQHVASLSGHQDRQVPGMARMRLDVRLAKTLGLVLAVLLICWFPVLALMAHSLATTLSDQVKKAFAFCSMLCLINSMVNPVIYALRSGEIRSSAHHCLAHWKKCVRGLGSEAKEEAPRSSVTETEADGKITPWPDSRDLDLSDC

Cannabinoid receptor 1 [2] = molecular target: T1, Cannabinoid receptor 1; experiment: Agonist activity at human recombinant CB1 receptor expressed in CHO cells by FLIPR assay

T1 sequence (P21554 whole entry): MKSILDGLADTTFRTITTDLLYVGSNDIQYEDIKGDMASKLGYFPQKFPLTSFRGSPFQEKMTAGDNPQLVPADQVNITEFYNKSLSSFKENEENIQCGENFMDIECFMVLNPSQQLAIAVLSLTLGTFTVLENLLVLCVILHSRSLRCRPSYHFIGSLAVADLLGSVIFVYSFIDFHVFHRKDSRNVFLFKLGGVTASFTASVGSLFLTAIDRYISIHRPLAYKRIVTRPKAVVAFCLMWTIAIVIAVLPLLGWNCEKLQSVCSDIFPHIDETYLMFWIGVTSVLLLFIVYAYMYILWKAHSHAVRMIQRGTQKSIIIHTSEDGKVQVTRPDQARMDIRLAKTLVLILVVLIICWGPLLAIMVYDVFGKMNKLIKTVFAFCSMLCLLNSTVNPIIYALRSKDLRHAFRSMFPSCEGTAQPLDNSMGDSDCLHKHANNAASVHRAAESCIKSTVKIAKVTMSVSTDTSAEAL

| Structure (SMILES) | Activity (Cannabinoid receptor 1 [1]) [%] | EC50 (Cannabinoid receptor 2) [µM] | EC50 (Cannabinoid receptor 1 [2]) [µM] |
| --- | --- | --- | --- |
| Cc1noc(C)c1S(=O)(=O)N1CCc2c(nc(CC(C)(C)C)n2CC2CC2)C1 | 24 | 0.007 | – |
| Cc1noc(C)c1S(=O)(=O)N1CCc2c(nc(C(C)(C)C)n2CC2CC2)C1 | 66 | 0.0051 | 7.5 |
| CC(C)(C)c1nc2c(n1CC1CC1)CCN(S(=O)(=O)c1ccccc1)C2 | 10 | 0.0079 | – |
| COCCS(=O)(=O)N1CCc2c(nc(C(C)(C)C)n2CC2CC2)C1 | 25 | 0.0267 | – |
| CC(C)(C)c1nc2c(n1CC1CC1)CCN(S(=O)(=O)Cc1ccccc1)C2 | 13 | 0.0218 | – |
| COCCS(=O)(=O)N1CCc2c(nc(CC(C)(C)C)n2CC2CC2)C1 | 37 | 0.0215 | 14 |
| CC(C)(C)Cc1nc2c(n1CC1CC1)CCN(S(=O)(=O)Cc1ccccc1)C2 | 15 | 0.0134 | – |
| Cc1nocc1S(=O)(=O)N1CCc2c(nc(CC(C)(C)C)n2CC2CC2)C1 | 9 | 0.0185 | – |
| CCCCC(=O)N1CCc2c(nc(CC(C)(C)C)n2CC2CC2)C1 | – | 1.02 | – |
| CC(C)(C)Cc1nc2c(n1CC1CC1)CCN(S(=O)(=O)c1ccccc1)C2 | 9 | 0.0091 | – |
| COc1ncc(Br)cc1CN1CCc2c(nc(C(C)(C)C)n2CC2CC2)C1 | – | 0.295 | – |
| CC(C)(C)C(=O)N1CCc2c(nc(C(C)(C)C)n2CC2CC2)C1 | – | 0.32 | – |
| CC(C)(C)c1nc2c(n1CC1CC1)CCN(S(C)(=O)=O)C2 | 10 | 0.403 | – |
| Cc1nocc1S(=O)(=O)N1CCc2c(nc(C(C)(C)C)n2CC2CC2)C1 | 38 | 0.0554 | 18 |
| CC(C)(C)Cc1nc2c(n1CC1CC1)CCN(S(C)(=O)=O)C2 | 9 | 0.439 | – |
| CCCCCN1CCc2c(nc(C(C)(C)C)n2CC2CC2)C1 | – | 0.878 | – |
| CCCN(C)C(=O)N1CCc2c(nc(C(C)(C)C)n2CC2CC2)C1 | – | 0.38 | – |
| CN(Cc1ccccc1)C(=O)N1CCc2c(nc(C(C)(C)C)n2CC2CC2)C1 | – | 0.637 | – |
| CCCOC(=O)N1CCc2c(nc(CC(C)(C)C)n2CC2CC2)C1 | – | 0.56 | – |
| CC(C)(C)Cc1nc2c(n1CC1CC1)CCN(S(=O)(=O)c1cccnc1)C2 | 4 | 0.0245 | – |
| CCCCCCC(C)(C)c1ccc([C@@H]2C[C@H](O)CC[C@H]2CCCO)c(O)c1 | 100 | – | – |
| CN(Cc1ccccc1)C(=O)N1CCc2c(nc(CC(C)(C)C)n2CC2CC2)C1 | – | 0.523 | – |
| CC(C)(C)c1nc2c(n1CC1CC1)CCN(S(=O)(=O)c1cccnc1)C2 | 11 | 0.0142 | – |
| CCCCCN1CCc2c(nc(CC(C)(C)C)n2CC2CC2)C1 | – | 3 | – |
